Experimental data as given in ChEMBL document CHEMBL3779885, “Inhibition of human DNA topoisomerase IIα by two novel ellipticine derivatives” (Bioorg Med Chem Lett, 2016).
Activity calls are given as the source filed them. The calls are words filed in the database; no cut-off is given here.

Legend:
[1] = target: T1, DNA topoisomerase 2-alpha (Homo sapiens, UniProt P11388); test: Inhibition of recombinant human DNA topoisomerase 2alpha expressed in topoisomerase1 deficient Saccharomyces cerevisiae JEL1 using kinetoplast DNA as substrate assessed as decantenated kDNA minicircles at 200 to 1000 uM after 15 mins by agarose gel electrophoresis
[2] = target: T1, DNA topoisomerase 2-alpha; test: Activity at recombinant human DNA topoisomerase 2alpha expressed in topoisomerase1 deficient Saccharomyces cerevisiae JEL1 assessed as topoisomerase 2alpha-mediated supercoiled pBR322 DNA cleavage up to 200 uM after 15 mins by agarose gel electrophoresis
Escherichia coli = test: Induction of DNA intercalation in relaxed pBR322 DNA assessed as conversion of relaxed DNA to negatively supercoiled DNA by measuring topoisomerase 1-mediated DNA relaxation measured up to 25 uM after 15 mins by agarose gel electrophoresis
[3] = target: T1, DNA topoisomerase 2-alpha; test: Inhibition of recombinant human DNA topoisomerase 2alpha expressed in topoisomerase1 deficient Saccharomyces cerevisiae JEL1 assessed as inhibition of DNA scission activity at 25 uM after 30 mins by agarose gel electrophoresis
[4] = target: T1, DNA topoisomerase 2-alpha; test: Inhibition of recombinant human DNA topoisomerase 2alpha expressed in topoisomerase1 deficient Saccharomyces cerevisiae JEL1 assessed as inhibition of DNA scission activity after 30 mins by agarose gel electrophoresis
[5] = target: T1, DNA topoisomerase 2-alpha; test: Inhibition of recombinant human DNA topoisomerase 2alpha binding to supercoiled pBR322 DNA expressed in topoisomerase1 deficient Saccharomyces cerevisiae JEL1 at 25 uM after 6 mins by electrophoretic mobility shift assay
Calf thymus DNA = test: Inhibition of calf thymus DNA topoisomerase 2 assessed as DNA cleavage after 30 mins by agarose gel electrophoresis; assay type: nucleic-acid assay, Bos taurus
[6] = target: T1, DNA topoisomerase 2-alpha; test: Induction of recombinant human DNA topoisomerase 2alpha binding to supercoiled pBR322 DNA expressed in topoisomerase1 deficient Saccharomyces cerevisiae JEL1 at 25 uM after 6 mins by electrophoretic mobility shift assay

T1 sequence (P11388 whole entry): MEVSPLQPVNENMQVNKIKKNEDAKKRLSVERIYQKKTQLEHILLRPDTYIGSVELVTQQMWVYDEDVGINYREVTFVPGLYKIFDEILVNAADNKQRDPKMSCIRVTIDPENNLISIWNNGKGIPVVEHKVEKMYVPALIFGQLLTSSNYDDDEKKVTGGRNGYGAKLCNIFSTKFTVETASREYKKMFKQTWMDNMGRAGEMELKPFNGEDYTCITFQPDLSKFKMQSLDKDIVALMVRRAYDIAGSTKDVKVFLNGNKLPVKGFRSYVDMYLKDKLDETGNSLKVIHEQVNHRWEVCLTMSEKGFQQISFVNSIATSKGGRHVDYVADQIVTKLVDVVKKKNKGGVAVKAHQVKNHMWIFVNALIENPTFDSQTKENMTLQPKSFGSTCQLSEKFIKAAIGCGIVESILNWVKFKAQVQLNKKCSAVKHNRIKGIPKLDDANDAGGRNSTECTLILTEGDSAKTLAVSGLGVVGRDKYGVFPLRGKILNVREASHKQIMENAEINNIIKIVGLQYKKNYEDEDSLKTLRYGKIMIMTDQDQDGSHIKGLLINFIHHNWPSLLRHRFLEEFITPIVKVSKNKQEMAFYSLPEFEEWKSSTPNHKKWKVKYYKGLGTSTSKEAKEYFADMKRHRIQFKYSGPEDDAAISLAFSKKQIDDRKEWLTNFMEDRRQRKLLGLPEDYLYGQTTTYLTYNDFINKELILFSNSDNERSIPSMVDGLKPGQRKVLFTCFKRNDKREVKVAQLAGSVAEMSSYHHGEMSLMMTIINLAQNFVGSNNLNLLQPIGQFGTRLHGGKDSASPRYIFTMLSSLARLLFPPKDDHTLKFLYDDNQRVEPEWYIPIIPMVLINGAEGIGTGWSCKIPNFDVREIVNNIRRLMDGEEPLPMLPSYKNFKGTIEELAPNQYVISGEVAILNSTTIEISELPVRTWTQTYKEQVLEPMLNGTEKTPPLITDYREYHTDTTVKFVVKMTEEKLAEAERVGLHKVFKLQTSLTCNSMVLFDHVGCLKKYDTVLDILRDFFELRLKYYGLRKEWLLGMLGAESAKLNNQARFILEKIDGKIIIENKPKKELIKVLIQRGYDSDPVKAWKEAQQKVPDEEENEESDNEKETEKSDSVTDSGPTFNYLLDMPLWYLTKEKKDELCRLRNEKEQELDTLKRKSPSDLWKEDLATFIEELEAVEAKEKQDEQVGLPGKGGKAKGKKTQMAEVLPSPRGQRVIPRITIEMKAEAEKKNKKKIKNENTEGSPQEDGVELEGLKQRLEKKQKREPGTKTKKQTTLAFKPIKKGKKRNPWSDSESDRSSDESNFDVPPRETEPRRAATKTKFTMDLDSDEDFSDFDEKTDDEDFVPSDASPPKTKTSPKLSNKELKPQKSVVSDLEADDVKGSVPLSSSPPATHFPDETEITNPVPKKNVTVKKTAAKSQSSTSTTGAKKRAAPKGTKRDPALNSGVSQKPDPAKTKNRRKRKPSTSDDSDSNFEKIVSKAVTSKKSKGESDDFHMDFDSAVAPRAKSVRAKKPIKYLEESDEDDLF

| Activity [6] | SMILES | inhibition [1] | Activity [2] | Activity (Escherichia coli) | inhibition [3] | IC50 [4] | inhibition [5] | IC50 (Calf thymus DNA) |
| --- | --- | --- | --- | --- | --- | --- | --- | --- |
|  | Cc1c2cnccc2cc2c1c1ccccc1n2C | Active | inactive | Active | 40% | 40 µM | inactive |  |
|  | Cc1c2ccncc2c(C)c2c1[nH]c1ccccc12 [ELLIPTECINE] |  |  |  |  |  |  | > 200 µM |
| 50% | Cc1c2c[n+](C)ccc2cc2c1c1ccccc1n2C | Active | inactive | Active | 80% | 5 µM | inactive |  |
